Data from ChEMBL document CHEMBL4177675, “The synthesis of 2,3,6-trisubstituted 1-oxo-1,2-dihydroisoquinolines as potent CRTh2 antagonists” (Bioorg Med Chem Lett, 2017).

How the values were obtained:
[1] = molecular target: T1, Prostaglandin D2 receptor 2 (Homo sapiens, UniProt Q9Y5Y4); experiment: Binding affinity to human CRTh2 assessed by competitive binding assay
T1 sequence (Q9Y5Y4 whole entry): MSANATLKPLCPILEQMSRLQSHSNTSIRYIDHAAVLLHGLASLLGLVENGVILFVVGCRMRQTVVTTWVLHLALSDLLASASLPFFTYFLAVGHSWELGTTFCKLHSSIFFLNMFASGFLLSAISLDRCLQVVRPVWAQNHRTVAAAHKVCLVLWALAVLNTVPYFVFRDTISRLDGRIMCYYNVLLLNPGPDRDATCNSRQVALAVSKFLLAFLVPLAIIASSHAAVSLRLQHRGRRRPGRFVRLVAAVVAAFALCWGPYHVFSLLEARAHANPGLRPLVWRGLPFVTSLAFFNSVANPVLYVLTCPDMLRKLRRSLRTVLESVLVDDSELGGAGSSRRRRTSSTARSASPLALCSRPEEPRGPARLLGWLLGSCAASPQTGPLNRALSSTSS

[2] = molecular target: T1, Prostaglandin D2 receptor 2; experiment: Antagonist activity at CRTh2 (unknown origin) assessed as inhibition of CD11b activation; type: functional

Ki [1]	Ki [2]	SMILES
703 nM	–	C[C@@H](NC(=O)c1ccc2c(=O)[nH]c(CCCCC(=O)O)cc2c1)c1ccc(F)cc1
11 nM	–	O=C(O)CCCCc1cc2cc(C(=O)Nc3cc(Cc4ccc(F)cc4)on3)ccc2c(=O)n1-c1ccc(F)cc1
7.8 nM	–	O=C(O)CCCCc1cc2cc(C(=O)Nc3noc(Cc4ccc(F)cc4)n3)ccc2c(=O)n1-c1ccc(F)cc1
22 nM	–	O=C(O)CCCCc1cc2cc(C(=O)Nc3noc(C4Cc5ccccc5C4)n3)ccc2c(=O)n1-c1ccc(F)cc1
5.9 nM	0.23 nM	C[C@@H](NC(=O)c1ccc2c(=O)n(-c3ccc(F)cc3)c(CCCCC(=O)O)cc2c1)c1ccc(F)cc1
8.5 nM	–	COc1ccc(-n2c(CCCCC(=O)O)cc3cc(C(=O)N[C@H](C)c4ccc(F)cc4)ccc3c2=O)cc1
9.2 nM	–	C[C@@H](NC(=O)c1ccc2c(=O)n(-c3ccc(C#N)cc3)c(CCCCC(=O)O)cc2c1)c1ccc(F)cc1
13 nM	–	CC(c1ccc(F)cc1)c1nc(NC(=O)c2ccc3c(=O)n(-c4ccc(F)cc4)c(CCCCC(=O)O)cc3c2)no1 (stereo not drawn)
24 nM	–	C[C@@H]1CN(c2ccc(F)cc2)CCN1C(=O)c1ccc2c(=O)n(-c3ccc(F)cc3)c(CCCCC(=O)O)cc2c1
26 nM	–	CC1(c2nc3ccc(F)cc3o2)CC(NC(=O)c2ccc3c(=O)n(-c4ccc(F)cc4)c(CCCCC(=O)O)cc3c2)=NO1 (stereo not drawn)
–	1.31 nM	O=C(O)CCCCc1cc2cc(C(=O)N[C@@H]3CCCc4cc(F)ccc43)ccc2c(=O)n1-c1ccc(F)cc1
–	0.4 nM	O=C(O)CCCCc1cc2cc(C(=O)N[C@@H]3CCCc4ccccc43)ccc2c(=O)n1-c1ccc(F)cc1
